The record followed here is patent publication US20090062294A1, “HETEROARYL-SUBSTITUTED UREA MODULATORS OF FATTY ACID AMIDE HYDROLASE” (priority 2007, published 2009).

Molecules are shown by their SMILES. Counter-ions that a name gives are not always drawn.

One experiment deals with T1, rat FAAH (Rattus norvegicus, UniProt P97612).
T1 sequence (P97612 1-579): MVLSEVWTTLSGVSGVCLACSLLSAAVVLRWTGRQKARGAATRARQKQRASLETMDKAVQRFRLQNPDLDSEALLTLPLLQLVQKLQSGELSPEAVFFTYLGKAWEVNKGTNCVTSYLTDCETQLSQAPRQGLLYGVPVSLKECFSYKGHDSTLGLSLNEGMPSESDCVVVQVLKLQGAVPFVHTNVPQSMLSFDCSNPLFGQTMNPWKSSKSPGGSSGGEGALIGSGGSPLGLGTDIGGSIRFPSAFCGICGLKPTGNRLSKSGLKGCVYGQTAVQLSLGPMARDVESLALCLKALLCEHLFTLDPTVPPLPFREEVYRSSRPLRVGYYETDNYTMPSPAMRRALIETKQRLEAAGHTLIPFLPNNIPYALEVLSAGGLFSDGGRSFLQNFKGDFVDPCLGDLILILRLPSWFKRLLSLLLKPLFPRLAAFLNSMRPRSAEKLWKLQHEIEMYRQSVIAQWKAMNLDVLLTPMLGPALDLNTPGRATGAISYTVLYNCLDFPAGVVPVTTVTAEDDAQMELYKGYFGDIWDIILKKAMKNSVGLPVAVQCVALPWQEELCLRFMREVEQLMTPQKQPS
Briefly: Assay Method 2: FAAH assay, 3H-anandamide hydrolysis in homogenate of SK-N-MC cells transfected with rat FAAH. It is filed as biochemical. The following applies: average of results, > = solubility limit or highest concentration tested. In outline: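 Read-out is scintillation counting of [3H]-ethanolamine passing through activated charcoal, after 1 h at rt with 80 nM final [3H]-AEA. Enzyme source: lysate of G418-selected SK-N-MC clones expressing rat FAAH, homogenized in Tris/EDTA/glycerol/0.02% Triton buffer, pH 9.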

The target in another experiment is T2, FAAH (Homo sapiens, UniProt O00519).
T2 sequence (O00519 1-579): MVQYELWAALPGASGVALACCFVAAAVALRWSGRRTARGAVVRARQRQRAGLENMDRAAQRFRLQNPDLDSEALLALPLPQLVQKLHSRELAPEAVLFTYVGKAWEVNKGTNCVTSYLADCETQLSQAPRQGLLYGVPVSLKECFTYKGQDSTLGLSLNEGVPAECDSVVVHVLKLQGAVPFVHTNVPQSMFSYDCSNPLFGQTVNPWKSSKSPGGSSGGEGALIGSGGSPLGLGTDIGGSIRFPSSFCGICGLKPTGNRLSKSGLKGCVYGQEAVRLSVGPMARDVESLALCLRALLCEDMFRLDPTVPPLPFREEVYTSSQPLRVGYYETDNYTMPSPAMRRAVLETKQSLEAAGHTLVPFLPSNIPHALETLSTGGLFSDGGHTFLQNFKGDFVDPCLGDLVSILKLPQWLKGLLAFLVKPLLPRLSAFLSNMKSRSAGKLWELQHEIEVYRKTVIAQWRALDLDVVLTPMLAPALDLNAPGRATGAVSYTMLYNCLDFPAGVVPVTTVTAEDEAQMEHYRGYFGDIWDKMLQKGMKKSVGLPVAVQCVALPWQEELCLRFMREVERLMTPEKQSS
Put plainly: Assay Method 1: FAAH assay, 3H-anandamide hydrolysis in homogenate of T84 cells or SK-N-MC cells transfected with human FAAH. The format is biochemical. The following applies: average of results, > = solubility limit or highest concentration tested. In outline: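 Hydrolysis of ^3H-anandamide (80 nM final, added last) was measured over 1 h at rt, using test compound with homogenate of T84 cells or human FAAH-transfected SK-N-MC cells. The homogenization buffer was 125 mM Tris, 1 mM EDTA, 0.02% Triton X-100, pH 9. Unbound labelled ethanolamine was passed through charcoal filters and scintillation-counted.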

Consider `O=C(Nc1cnccn1)N1CCN(Cc2cccc(Oc3ccc4ccccc4c3)c2)CC1` [Example 228, 4-[3-(Naphthalen-2-yloxy)-benzyl]-piperazine-1-carboxylic acid pyrazin-2-ylamide], for which the IC50 was 0.08 µM at rat FAAH and 0.03 µM against FAAH.

Consider `O=C(Nc1noc2ccccc12)N1CCN(Cc2cc3ccccc3s2)CC1` [Example 113, N-1,2-Benzisoxazol-3-yl-4-(1-benzothiophen-2-ylmethyl)piperazine-1-carboxamide], for which the IC50 against rat FAAH amounted to 0.03 µM; against FAAH it was 0.02 µM.

Turning to `O=C(Nc1cccnn1)N1CCN(Cc2cnc3ccccc3c2)CC1` [Example 197, N-Pyridazin-3-yl-4-(quinolin-3-ylmethyl)piperazine-1-carboxamide], the IC50 stood at 9 µM against rat FAAH and 1.3 µM on FAAH.

With `O=C(Nc1nnn[nH]1)N1CCN(Cc2cccc(Oc3ccc(C(F)(F)F)cc3)c2)CC1` [Example 171, N-1H-Tetrazol-5-yl-4-{3-[4-(trifluoromethyl)phenoxy]benzyl}piperazine-1-carboxamide], the IC50 against rat FAAH amounted to 0.035 µM; at FAAH it was 0.2 µM.

As for `Cn1cc(Br)c(NC(=O)N2CCN(Cc3cccc(Oc4ccc(Cl)cc4)c3)CC2)n1` [Example 192, 4-[3-(4-Chloro-phenoxy)-benzyl]-piperazine-1-carboxylic acid (4-bromo-1-methyl-1H-pyrazol-3-yl)-amide trifluoroacetic acid salt], the IC50 at rat FAAH is over 10 µM; at FAAH it was 4 µM.

As to `O=C(Nc1cnccn1)N1CCN(Cc2cccc(Oc3cccc(Br)c3)c2)CC1` [Example 240, 4-[3-(3-Bromophenoxy)benzyl]-N-pyrazin-2-ylpiperazine-1-carboxamide], the IC50 against rat FAAH was 0.08 µM; against FAAH, 0.02 µM.

With `O=C(Nc1ccon1)N1CCC(Cc2ccc3ccccc3c2)CC1` [Example 11, 4-Naphthalen-2-ylmethyl-piperidine-1-carboxylic acid isoxazol-3-ylamide], the IC50 at rat FAAH was 0.17 µM; against FAAH, 1 µM.

Consider `O=C(Nc1ccon1)N1CCN(Cc2ccc(Cl)c(Cl)c2)CC1` [Example 160, 4-(3,4-Dichlorobenzyl)-N-isoxazol-3-ylpiperazine-1-carboxamide], for which the IC50 turned out to be 8 µM on rat FAAH and 3 µM at FAAH.

For `O=C(Nc1noc2ccccc12)N1CCN(Cc2cccc(C#Cc3ccc(Cl)cc3Cl)c2)CC1` [Example 81, N-1,2-Benzisoxazol-3-yl-4-{3-[(2,4-dichlorophenyl)-ethynyl]benzyl}-piperazine-1-carboxamide], the values for the IC50 against rat FAAH and at FAAH were 0.238 µM and 0.453 µM, respectively.

Take `O=C(Nc1cnccn1)N1CCN(Cc2ccc3c(c2)OC(F)(F)O3)CC1` [Example 210, 4-[(2,2-Difluoro-1,3-benzodioxol-5-yl)methyl]-N-pyrazin-2-ylpiperazine-1-carboxamide]: the IC50 against rat FAAH is 1.16 µM; against FAAH, 1.75 µM.

Take `O=C(Nc1cnccn1)N1CCN(Cc2ccc3c(c2)OCO3)CC1` [Example 211, 4-(1,3-Benzodioxol-5-ylmethyl)-N-pyrazin-2-ylpiperazine-1-carboxamide]: the IC50 against rat FAAH was over 10 µM; at FAAH, 3 µM.

Take `O=C(Nc1cnccn1)N1CCN(Cc2cccc(Oc3ccccc3)c2)CC1` [Example 227, 4-(3-Phenoxy-benzyl)-piperazine-1-carboxylic acid pyrazin-2-ylamide]: the IC50 at rat FAAH is 5.3 µM; against FAAH, 0.4 µM.

For `O=C(Nc1cccnn1)N1CCN(Cc2ccc(Cl)c(Cl)c2)CC1` [Example 199, 4-(3,4-Dichlorobenzyl)-N-pyridazin-3-ylpiperazine-1-carboxamide], the IC50 was determined as 0.59 µM on rat FAAH and 0.28 µM at FAAH.

Turning to `O=C(Nc1noc2ccccc12)N1CCN(Cc2cccc(Oc3ccc(F)c(Cl)c3)c2)CC1` [Example 207, 4-[3-(3-Chloro-4-fluoro-phenoxy)-benzyl]-piperazine-1-carboxylic acid benzo[d]isoxazol-3-ylamide], the IC50 worked out at 0.046 µM at rat FAAH and 0.034 µM on FAAH.

Turning to `O=C(Nc1ccon1)N1CCN(Cc2cccc(Oc3cccc(C(F)(F)F)c3)c2)CC1` [Example 48, 4-[3-(3-Trifluoromethyl-phenoxy)-benzyl]-piperazine-1-carboxylic acid isoxazol-3-ylamide trifluoroacetic acid salt], the values for the IC50 against rat FAAH and against FAAH were 0.049 µM and 0.627 µM, respectively.

For the compound `O=C(Nc1nc(-c2ccccc2)ns1)N1CCC(Cc2ccc3ccccc3c2)CC1` [Example 12, 4-Naphthalen-2-ylmethyl-piperidine-1-carboxylic acid (3-phenyl-[1,2,4]thiadiazol-5-yl)-amide], the IC50 at rat FAAH is 3 µM; against FAAH, 5 µM.

On to `O=C(Nc1noc2ccccc12)N1CCN(Cc2cccc(Oc3ccc(Cl)c(C(F)(F)F)c3)c2)CC1` [Example 205, 4-[3-(4-Chloro-3-trifluoromethyl-phenoxy)-benzyl]-piperazine-1-carboxylic acid benzo[d]isoxazol-3-ylamide trifluoroacetic acid salt], for which the IC50 at rat FAAH turned out to be 0.225 µM; against FAAH it was 0.106 µM.

For the compound `O=C(Nc1cnccn1)N1CCN(Cc2cccc(Oc3ccc(F)c(F)c3)c2)CC1` [Example 231, 4-[3-(3,4-Difluorophenoxy)benzyl]-N-pyrazin-2-ylpiperazine-1-carboxamide], the IC50 on rat FAAH came out at 3.6 µM; against FAAH, 0.13 µM.

Regarding `O=C(Nc1ccon1)N1CCN(Cc2cccc(Oc3ccc(F)c(F)c3)c2)CC1` [Example 153, 4-[3-(3,4-Difluorophenoxy)benzyl]-N-isoxazol-3-ylpiperazine-1-carboxamide], the IC50 stood at 8 µM against rat FAAH and 0.46 µM on FAAH.

Turning to `O=C(Nc1noc2ccccc12)N1CCN(Cc2ccc3c(c2)OCO3)CC1` [Example 116, N-1,2-Benzisoxazol-3-yl-4-(1,3-benzodioxol-5-ylmethyl)piperazine-1-carboxamide], the IC50 on rat FAAH is 0.76 µM; at FAAH it was 0.4 µM.

As to `O=C(Nc1ccon1)N1CCN(Cc2cccc(Oc3ccc4c(c3)OC(F)(F)O4)c2)CC1` [Example 141, 4-{3-[(2,2-Difluoro-1,3-benzodioxol-5-yl)oxy]benzyl}-N-isoxazol-3-ylpiperazine-1-carboxamide], the IC50 on rat FAAH came out at 0.87 µM; against FAAH it was 0.05 µM.

For the compound `O=C(Nc1nnn[nH]1)N1CCN(Cc2ccc3c(c2)OC(F)(F)O3)CC1` [Example 3, 4-(2,2-Difluoro-benzo[1,3]dioxol-5-ylmethyl)-piperazine-1-carboxylic acid (1H-tetrazol-5-yl)-amide trifluoroacetic acid salt], the figures for the IC50 at rat FAAH and against FAAH were 9 µM and 1.2 µM, respectively.

With `O=C(Nc1ccon1)N1CCC(Cc2cccc(C(F)(F)F)c2)CC1` [Example 26, 4-(3-Trifluoromethyl-benzyl)-piperidine-1-carboxylic acid isoxazol-3-ylamide], the IC50 at rat FAAH came to 1 µM; at FAAH, 5 µM.

For `O=C(Nc1noc2ccccc12)N1CCN(Cc2cccc(C#Cc3ccc4c(c3)OCO4)c2)CC1` [Example 89, N-1,2-Benzisoxazol-3-yl-4-[3-(1,3-benzodioxol-5-ylethynyl)benzyl]-piperazine-1-carboxamide], the IC50 is 0.544 µM against rat FAAH and 0.645 µM against FAAH.
